Target: T1, TgTCP-1 (putative TCP-1 chaperonin, TGME49_318410) (Toxoplasma gondii, UniProt A0A125YLR8)
T1 construct: full-length CDS, aa 1-537, N-terminal GST tag kept (pGEX-4T-1), E. coli BL21 (DE3), about 85 kDa
Assay: pull-down on sialic acid-agarose with competition by free sialic acid, anti-GST Western blot
Type: binding
Settings: 1 uM GST-TgTCP-1; free sialic acid 0.001-100 mg/mL; PBS wash; 4 C

T1 sequence (A0A125YLR8 entry or part of it): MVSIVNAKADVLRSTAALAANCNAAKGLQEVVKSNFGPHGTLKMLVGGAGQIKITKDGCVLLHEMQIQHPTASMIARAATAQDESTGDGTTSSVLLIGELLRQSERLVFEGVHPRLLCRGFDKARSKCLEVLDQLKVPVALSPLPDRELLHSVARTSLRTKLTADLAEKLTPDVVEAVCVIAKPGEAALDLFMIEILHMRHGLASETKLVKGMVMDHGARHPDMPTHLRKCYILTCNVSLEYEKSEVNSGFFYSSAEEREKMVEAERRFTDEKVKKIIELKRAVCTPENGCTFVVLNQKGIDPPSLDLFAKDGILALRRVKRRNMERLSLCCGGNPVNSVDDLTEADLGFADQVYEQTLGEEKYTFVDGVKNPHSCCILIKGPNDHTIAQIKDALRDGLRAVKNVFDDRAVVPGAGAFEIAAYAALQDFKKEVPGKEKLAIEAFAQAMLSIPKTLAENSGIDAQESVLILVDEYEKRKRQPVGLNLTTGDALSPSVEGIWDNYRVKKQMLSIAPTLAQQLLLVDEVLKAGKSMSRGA

CC(=O)N[C@H]1[C@H]([C@H](O)[C@H](O)CO)OC(O)(C(=O)O)C[C@@H]1O (stereo partly shown) [sialic acid]
pull-down on sialic acid-agarose with competition by free sialic acid, anti-GST: binding of GST-TgTCP-1 to sialic acid-agarose was inhibited by sialic acid in a dose dependent manner

— publication PMC7047128, “The Putative TCP-1 Chaperonin Is an Important Player Involved in Sialic Acid-Dependent Host Cell Invasion by Toxoplasma gondii” (Frontiers in Microbiology, 2020)
